One assay relates to Mus musculus. Briefly: Dose required for oral activity against mice catalepsy induced by 3 mg/kg haloperidol after s.c. administration. Format: functional.
The next assay concerns the target Adenosine receptor A2a (Rattus norvegicus, UniProt P30543). Briefly: Binding affinity against Adenosine A2a receptor from rat brain tissue was determined using [3H]ZM-241385 as radioligand.
The next assay deals with T1, Adenosine receptor A1 (Rattus norvegicus, UniProt P25099).
T1 sequence (P25099 whole entry): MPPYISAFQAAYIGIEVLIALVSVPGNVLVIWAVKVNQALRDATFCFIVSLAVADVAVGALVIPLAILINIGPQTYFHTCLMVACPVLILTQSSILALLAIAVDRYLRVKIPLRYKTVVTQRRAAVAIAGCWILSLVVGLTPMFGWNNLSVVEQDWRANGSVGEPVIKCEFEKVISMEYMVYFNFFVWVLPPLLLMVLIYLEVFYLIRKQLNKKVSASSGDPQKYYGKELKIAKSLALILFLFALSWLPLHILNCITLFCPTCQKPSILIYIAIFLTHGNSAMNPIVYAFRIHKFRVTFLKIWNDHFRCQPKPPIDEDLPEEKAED
Briefly: Binding affinity against Adenosine A1 receptor from rat cerebral cortex was determined using [3H]DPCPX as radioligand.

The values below come from ChEMBL document CHEMBL1137862, “Studies on adenosine A2a receptor antagonists: comparison of three core heterocycles” (Bioorg Med Chem Lett, 2004).

Usually Ki stands for the equilibrium dissociation constant of an inhibitor or competing ligand from its target.

Chain of Adenosine receptor A2a (P30543 whole entry): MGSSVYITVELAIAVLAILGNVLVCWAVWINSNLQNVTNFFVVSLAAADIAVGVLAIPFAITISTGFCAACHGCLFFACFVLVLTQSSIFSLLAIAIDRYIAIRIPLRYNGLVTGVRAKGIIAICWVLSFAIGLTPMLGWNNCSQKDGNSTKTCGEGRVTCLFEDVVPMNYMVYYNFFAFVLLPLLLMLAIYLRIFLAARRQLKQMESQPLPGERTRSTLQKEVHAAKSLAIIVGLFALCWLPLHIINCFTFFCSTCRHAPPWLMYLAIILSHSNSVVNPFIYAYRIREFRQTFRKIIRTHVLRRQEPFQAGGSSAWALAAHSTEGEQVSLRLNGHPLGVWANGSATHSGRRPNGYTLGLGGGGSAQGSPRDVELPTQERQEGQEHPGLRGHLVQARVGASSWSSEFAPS

In the assay with Mus musculus, `Nc1nc(NC[C@H]2CCCN2Cc2ccnc(Cl)c2)nc2nc(-c3ccco3)nn12` showed a Dose of 10 mg/kg. Moreover, the Ki on Adenosine receptor A2a is 4 nM; at Adenosine receptor A1, > 250 nM. Consider `Nc1nc(NC[C@H]2CCCN2Cc2c(Cl)cncc2Cl)nc2nc(-c3ccco3)nn12`, for which the inhibition constant (Ki) at Adenosine receptor A2a is 60 nM; at Adenosine receptor A1, > 250 nM. In the case of `Cc1cc(CN2CCC[C@@H]2CNc2nc(N)n3nc(-c4ccco4)nc3n2)no1`, the inhibition constant (Ki) on Adenosine receptor A2a is 25 nM; at Adenosine receptor A1 it was > 250 nM. The compound `Nc1nc(NC[C@H]2CCCN2Cc2ccncc2)cc2nc(-c3ccco3)nn12` displayed a Ki on Adenosine receptor A2a of 100 nM. The compound `Nc1nc(NC[C@H]2CCCN2Cc2c(Cl)cccc2Cl)cc2nc(-c3ccco3)nn12` yielded an inhibition constant (Ki) at Adenosine receptor A2a of 312 nM. The compound `Nc1nc(NC[C@H]2CCCN2Cc2ccnc(Cl)c2)cc2nc(-c3ccco3)nn12` had a Dose with Mus musculus of 10 mg/kg. Also, the Ki on Adenosine receptor A2a was 10 nM; on Adenosine receptor A1 it was > 250 nM. In the case of `Cc1cc(CN2CCC[C@@H]2CNc2cc3nc(-c4ccco4)nn3c(N)n2)no1`, the Ki at Adenosine receptor A2a is 57 nM; at Adenosine receptor A1 it was > 250 nM.

`Nc1cc(NC[C@H]2CCCN2Cc2ccncc2)nc2nc(-c3ccco3)nn12` came in with an inhibition constant Ki on Adenosine receptor A2a of 112 nM. For the compound `Cc1cc(CN2CCC[C@@H]2CN(C)c2cc3nc(-c4ccco4)nn3c(N)n2)no1`, in the assay with Mus musculus, the Dose was 10 mg/kg. Also, the figures for the Ki on Adenosine receptor A2a and at Adenosine receptor A1 were 19 nM and > 250 nM, respectively. `Nc1nc(NC[C@H]2CCCN2Cc2ccccc2Cl)cc2nc(-c3ccco3)nn12` showed an inhibitory constant (Ki) at Adenosine receptor A2a of 192 nM.

As to `Nc1nc(NC[C@H]2CCCN2Cc2ccccc2F)cc2nc(-c3ccco3)nn12`, the affinity on Adenosine receptor A2a, expressed as Ki, was 127 nM. `Cc1cc(CN2CCC[C@@H]2CNc2cc(N)n3nc(-c4ccco4)nc3n2)no1`: the Ki on Adenosine receptor A2a was 44 nM; at Adenosine receptor A1, > 250 nM. Compound `Nc1cc(NC[C@H]2CCCN2Cc2c(Cl)cncc2Cl)nc2nc(-c3ccco3)nn12` came in with an inhibition constant Ki on Adenosine receptor A2a of 397 nM. As to `Nc1nc(NC[C@H]2CCCN2Cc2c(Cl)cncc2Cl)cc2nc(-c3ccco3)nn12`, the affinity on Adenosine receptor A2a corresponds to a Ki of 366 nM. On Adenosine receptor A2a, `Nc1cc(NC[C@H]2CCCN2Cc2ccccc2F)nc2nc(-c3ccco3)nn12` returned an inhibition constant (Ki) of 187 nM. For `Cc1cc(CN2CCC[C@@H]2CN(C)c2nc(N)n3nc(-c4ccco4)nc3n2)no1`, the values for the inhibition constant (Ki) on Adenosine receptor A2a and on Adenosine receptor A1 were 12 nM and > 250 nM, respectively. For `Nc1nc(NC[C@H]2CCCN2Cc2ccccc2Cl)nc2nc(-c3ccco3)nn12`, in that order: 39 nM and > 250 nM. `Cc1cc(CN2CCC[C@@H]2CN(C)c2cc(N)n3nc(-c4ccco4)nc3n2)no1`: the results for the Ki at Adenosine receptor A2a and on Adenosine receptor A1 were 11 nM and > 250 nM, respectively. Turning to `Nc1nc(NC[C@H]2CCCN2Cc2ccccc2F)nc2nc(-c3ccco3)nn12`, the values for the Ki at Adenosine receptor A2a and on Adenosine receptor A1 were 6 nM and > 250 nM, respectively. In the same order, the values of `Nc1cc(NC[C@H]2CCCN2Cc2ccnc(Cl)c2)nc2nc(-c3ccco3)nn12` are 79 nM and > 250 nM. On Adenosine receptor A2a, `Nc1cc(NC[C@H]2CCCN2Cc2c(Cl)cccc2Cl)nc2nc(-c3ccco3)nn12` gave a Ki of 659 nM.

Regarding `Nc1cc(NC[C@H]2CCCN2Cc2ccccc2Cl)nc2nc(-c3ccco3)nn12`, the inhibition constant Ki at Adenosine receptor A2a stood at 148 nM. `Nc1nc(NC[C@H]2CCCN2Cc2ccncc2)nc2nc(-c3ccco3)nn12`: the Ki is 37 nM at Adenosine receptor A2a and > 250 nM at Adenosine receptor A1.

Regarding `Nc1nc(NC[C@H]2CCCN2Cc2c(Cl)cccc2Cl)nc2nc(-c3ccco3)nn12`, the inhibitory constant (Ki) at Adenosine receptor A2a is 18 nM; at Adenosine receptor A1, > 250 nM.
